# Reference: PubChem BioAssay AID2060512 (Molecular Pharmacology Branch, DTP, NCI, 2025)
# Several values for one entry are separate records, joined by “and”; a condition that tells them apart may be missing. Identical values can stand only once.
# Tested on: 186277-243-T-J2-PDC complex spheroid viability
# Assay: Anticancer human tumor 186277-243-T-J2-PDC patient-derived colon adenocarcinoma cell line growth inhibition [GQUAD]
# Details: for viability, T/C: stronger effect = lower value
# Text: DNA G-quadruplex Stabilizer Agents in Combinations in Complex Spheroids
# A high-throughput screen of multi-cell type tumor spheroids was designed to identify active combinations of DNA G-quadruplex stabilizer agents and targeted small molecules. Complex spheroids include a stromal component modeled by human endothelial cells (HUVEC) and fibroblasts modeled by human mesenchymal stem cells (MSCs). The concentration ranges selected for each drug and investigational agent were based upon clinically achievable concentrations if the clinical Cmax of the agent was known.
# Compounds. The drugs and investigational agents: pidnarulex (CX-5461; NSC782164), APTO-253 (NSC789042), BRACO-19 (NSC847499), peposertib (NSC802822), ceralasertib (NSC780249), elimusertib (NSC800525), camonsertib (NSC841442), AZD-1390 (NSC803789), olaparib (NSC753686), talazoparib (NSC767125), ART-558 (NSC835418), sotorasib (NSC818433), MRTX-1133 (NSC836407), SN-38 (NSC673596), topotecan (NSC609699), etoposide (NSC141540), doxorubicin (NSC123127), gemcitabine (NSC613327), 5-fluorouracil (NSC19893), paclitaxel (NSC125973), vemurafenib (NSC761431), panobinostat (NSC761190), R-306465 (JNJ-16241199; NSC773264), adavosertib (NSC754352), TP-3654 (NSC805149), carboplatin (NSC241240), KSQ-4279 (NSC840948), and staurosporine (NSC755774) were obtained from the National Cancer Institute (NCI) Developmental Therapeutics Program Chemical Repository (34). The FDA-approved anticancer drug set is available from the NCI Developmental Therapeutics Program. […] The stock solutions were prepared in dimethyl sulfoxide (DMSO, Sigma-Aldrich, St. Louis, MO, cat. D2650) at 800-fold the tested concentration and stored at -70 degrees C prior to their use. All drugs and investigational agents were tested over a range starting from a high concentration at or near the clinical Cmax and decreasing in half-log increments. If the clinical Cmax for an agent had not been determined, the highest concentration tested was 10 microM.
# 2.3 Cell Culture. All cells were maintained in an incubator at 37 degrees C and 5% CO2 with 95% humidity. The PDC lines were cultured according to standard operating procedures established by the NCI PDMR. All PDCs were thawed and cultured in Matrigel-coated flasks prepared with a working solution of 1X Ham's F-12 nutrient mix, without supplementation (Invitrogen, cat. 11765054), 100 U/mL penicillin-streptomycin (Invitrogen, cat. 15140122), and 2.5% Matrigel (Corning Inc., cat. 354248) for the first three passages. The 857933-349-R-J2-PDC line was cultured in 6C/Colon 1B media, which includes advanced DMEM/F-12 (Thermo Fisher Scientific, cat. 12634028), 10 mM HEPES (Thermo Fisher Scientific, cat. 15630080), 1X GlutaMAX supplement (Thermo Fisher Scientific, cat. 35050061), 0.1 mg/mL primocin (InvivoGen, cat. ant-pm-2), 10% defined fetal bovine serum, heat inactivated (HyClone Laboratories Inc., cat. SH30070.03HI), 50% L-WRN conditioned media (ATCC, cat. CRL-3276), 1.25 mM N-Acetyl-L-cysteine (Sigma-Aldrich, cat. A9165), 10 mM nicotinamide (Sigma-Aldrich, cat. N0636), 1X B-27 supplement (Thermo Fisher Scientific, cat. 17504044), 1X N-2 supplement (Thermo Fisher Scientific, cat. 17502048), 10 microM Y-27632 dihydrochloride (Tocris Bioscience, cat. 1254), and 50 ng/mL human EGF recombinant protein (Thermo Fisher Scientific, cat. PHG0311). The 485176-168-R4-J1-PDC line was cultured in Panc media, which includes all 6C/Colon 1B media components plus 100 ng/mL human FGF-10 (Thermo Fisher Scientific, cat. 100-26), 500 nM SB-431542 (Selleckchem, cat. S1067), and gastrin (Tocris, cat. 3006).
# […]
# [1] = curve of first compound, second compound 0.0316 µM
# [2] = curve of first compound, second compound 0.1 µM
# [3] = curve of first compound, second compound 0.316 µM
# [4] = curve of first compound, second compound 1 µM
# [5] = curve of first compound, second compound 3.16 µM
# [6] = curve of first compound, second compound 10 µM
# [7] = second compound 0.0316 µM, first compound 0.0316 µM
# [8] = second compound 0.0316 µM, first compound 0.1 µM
# [9] = second compound 0.0316 µM, first compound 0.316 µM
# [10] = second compound 0.0316 µM, first compound 1 µM
# [11] = second compound 0.0316 µM, first compound 3.16 µM
# [12] = second compound 0.0316 µM, first compound 10 µM
# [13] = second compound 0.1 µM, first compound 0.0316 µM
# [14] = second compound 0.1 µM, first compound 0.1 µM
# [15] = second compound 0.1 µM, first compound 0.316 µM
# [16] = second compound 0.1 µM, first compound 1 µM
# [17] = second compound 0.1 µM, first compound 3.16 µM
# [18] = second compound 0.1 µM, first compound 10 µM
# [19] = second compound 0.316 µM, first compound 0.0316 µM
# [20] = second compound 0.316 µM, first compound 0.1 µM
# [21] = second compound 0.316 µM, first compound 0.316 µM
# [22] = second compound 0.316 µM, first compound 1 µM
# [23] = second compound 0.316 µM, first compound 3.16 µM
# [24] = second compound 0.316 µM, first compound 10 µM
# [25] = second compound 1 µM, first compound 0.0316 µM
# [26] = second compound 1 µM, first compound 0.1 µM
# [27] = second compound 1 µM, first compound 0.316 µM
# [28] = second compound 1 µM, first compound 1 µM
# [29] = second compound 1 µM, first compound 3.16 µM
# [30] = second compound 1 µM, first compound 10 µM
# [31] = second compound 3.16 µM, first compound 0.0316 µM
# [32] = second compound 3.16 µM, first compound 0.1 µM
# [33] = second compound 3.16 µM, first compound 0.316 µM
# [34] = second compound 3.16 µM, first compound 1 µM
# [35] = second compound 3.16 µM, first compound 3.16 µM
# [36] = second compound 3.16 µM, first compound 10 µM
# [37] = second compound 10 µM, first compound 0.0316 µM
# [38] = second compound 10 µM, first compound 0.1 µM
# [39] = second compound 10 µM, first compound 0.316 µM
# [40] = second compound 10 µM, first compound 1 µM
# [41] = second compound 10 µM, first compound 3.16 µM
# [42] = second compound 10 µM, first compound 10 µM
# 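Further: spheroids exposed to drugs for 7 days.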
# 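Wherever viability, T/C is given: 100% = DMSO vehicle control viability.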
compound,measurement,setting,value
COc1ncnc(C2CC2)c1-c1ncc2cnn(Cc3ccc(-c4nc(C(F)(F)F)cn4C(C)C)cc3)c2n1 + Cc1cnc(CNC(=O)c2c(=O)c3ccc(N4CCCN(C)CC4)nc3n3c2sc2ccccc23)cn1,IC50,[1],> 10000 nM
same,IC50,[2],> 10000 nM
same,IC50,[3],> 10000 nM
same,IC50,[4],< 31.6 nM
same,IC50,[5],< 31.6 nM
same,IC50,[6],< 31.6 nM
same,"viability, T/C",[7],90%
same,"viability, T/C",[8],73.9%
same,"viability, T/C",[9],86.6%
same,"viability, T/C",[10],67%
same,"viability, T/C",[11],79.1%
same,"viability, T/C",[12],76.1%
same,"viability, T/C",[13],67.3%
same,"viability, T/C",[14],55.1%
same,"viability, T/C",[15],62.3%
same,"viability, T/C",[16],51.5%
same,"viability, T/C",[17],69%
same,"viability, T/C",[18],62.1%
same,"viability, T/C",[19],55.5%
same,"viability, T/C",[20],57.2%
same,"viability, T/C",[21],61.6%
same,"viability, T/C",[22],53.1%
same,"viability, T/C",[23],62.6%
same,"viability, T/C",[24],48.5%
same,"viability, T/C",[25],42.4%
same,"viability, T/C",[26],39.3%
same,"viability, T/C",[27],38.2%
same,"viability, T/C",[28],36.1%
same,"viability, T/C",[29],48.1%
same,"viability, T/C",[30],33.2%
same,"viability, T/C",[31],27.5%
same,"viability, T/C",[32],39.1%
same,"viability, T/C",[33],43.6%
same,"viability, T/C",[34],42.6%
same,"viability, T/C",[35],42.5%
same,"viability, T/C",[36],37.4%
same,"viability, T/C",[37],29.4%
same,"viability, T/C",[38],41.9%
same,"viability, T/C",[39],34.3%
same,"viability, T/C",[40],32.9%
same,"viability, T/C",[41],37.3%
same,"viability, T/C",[42],32.8%
COc1cc(C2c3cc4c(cc3C(OC3OC5COC(C)OC5C(O)C3O)C3COC(=O)C23)OCO4)cc(OC)c1O (stereo not drawn) + Cc1cnc(CNC(=O)c2c(=O)c3ccc(N4CCCN(C)CC4)nc3n3c2sc2ccccc23)cn1,IC50,[1],985 nM
same,IC50,[2],1080 nM
same,IC50,[3],1630 nM
same,IC50,[4],< 31.6 nM
same,IC50,[5],169 nM
same,IC50,[6],< 31.6 nM
same,"viability, T/C",[7],105%
same,"viability, T/C",[8],93.9%
same,"viability, T/C",[9],78.2%
same,"viability, T/C",[10],45.1%
same,"viability, T/C",[11],33.3%
same,"viability, T/C",[12],15.8%
same,"viability, T/C",[13],70.8%
same,"viability, T/C",[14],82.5%
same,"viability, T/C",[15],69.3%
same,"viability, T/C",[16],46.5%
same,"viability, T/C",[17],37.3%
same,"viability, T/C",[18],20%
same,"viability, T/C",[19],80.8%
same,"viability, T/C",[20],69.8%
same,"viability, T/C",[21],55.9%
same,"viability, T/C",[22],53.7%
same,"viability, T/C",[23],53.3%
same,"viability, T/C",[24],20.3%
same,"viability, T/C",[25],43.6%
same,"viability, T/C",[26],50.8%
same,"viability, T/C",[27],57.5%
same,"viability, T/C",[28],44.9%
same,"viability, T/C",[29],42.3%
same,"viability, T/C",[30],20%
same,"viability, T/C",[31],50.9%
same,"viability, T/C",[32],51%
same,"viability, T/C",[33],51.4%
same,"viability, T/C",[34],38.8%
same,"viability, T/C",[35],30.7%
same,"viability, T/C",[36],19.6%
same,"viability, T/C",[37],42.7%
same,"viability, T/C",[38],35%
same,"viability, T/C",[39],45%
same,"viability, T/C",[40],47%
same,"viability, T/C",[41],33.7%
same,"viability, T/C",[42],17.7%
COc1cccc2c1C(=O)c1c(O)c3c(c(O)c1C2=O)CC(O)(C(=O)CO)CC3OC1CC(N)C(O)C(C)O1 (stereo not drawn),"viability, T/C",compound 0.0316 µM,108% and 97.9% and 88.6%
same,"viability, T/C",compound 0.1 µM,117% and 91.2% and 90.2%
same,"viability, T/C",compound 0.316 µM,83.2% and 57.1% and 66.7%
same,"viability, T/C",compound 1 µM,29.7% and 15.8% and 22.8%
same,"viability, T/C",compound 3.16 µM,4.47% and 0.22% and 0.3%
same,"viability, T/C",compound 10 µM,0.23% and 0.19% and 0.13%
same,IC50,curve of compound,649 nM and 388 nM and 494 nM
Cc1[nH]c2ccccc2c1CCNCc1ccc(/C=C/C(=O)NO)cc1,"viability, T/C",compound 0.000999 µM,107% and 92.7% and 99%
same,"viability, T/C",compound 0.00316 µM,89.4% and 96.9% and 90%
same,"viability, T/C",compound 0.00999 µM,92.2% and 94.9% and 101%
same,"viability, T/C",compound 0.0316 µM,60% and 92.1% and 97.2%
same,"viability, T/C",compound 0.0999 µM,18.4% and 8.39% and 19.1%
same,"viability, T/C",compound 0.316 µM,0.49% and 2.16% and 2.64%
same,IC50,curve of compound,41.9 nM and 56.4 nM and 63.2 nM
